PubChem BioAssay AID743303 (Broad Institute, 2014)
“And” between values parts separate entries of the source, which are not always exact repeats. Identical values can stand only once. The source made the active and inactive calls. The rule behind the calls is not given here.

Key:
[1] = inducers of C. neoformans cell lysis, dose response, AK release, plate reader, dry powder, set 2 (AID 743303); details: C. neoformans cell lysis, adenylate kinase release; at 15 µM (top of the series)
[2] = test system: C. neoformans cell lysis, adenylate kinase release; assay: as above

Cc1ccc(C(C)C)c(OCCn2c(NC#N)nc3ccccc32)c1
cell lysis activity [1]: -24% (inactive)

Cc1ccc(OCCn2cnc3cc(C)c(C)cc32)cc1
AC40 [2]: 1.94 µM

Cc1ccc(C(C)C)c(OCCn2c(=S)[nH]c3ccccc32)c1
AC40 [2]: 9.17 µM

c1ccc2c(c1)ncn2CCOc1ccc2c(c1)CCC2
cell lysis activity [1]: 33.8% (inactive)

CC(C)Oc1ccc(OCCn2c(=S)[nH]c3ccccc32)cc1
cell lysis activity [1]: 26.4% (inactive)

Cc1cccc(OCCn2c(=S)[nH]c3c(F)cccc32)c1
AC40 [2]: 3.23 µM and 1.51 µM

CCCc1nc2ccccc2n1CCOc1ccccc1
AC40 [2]: 7.46 µM

Clc1ccccc1OCCn1cnc2ccccc21
AC40 [2]: > 15 µM (inactive)

CCSc1nc2ccccc2n1CCOc1ccccc1
AC40 [2]: > 15 µM (inactive)

c1ccc(COc2ccc(OCCn3cnc4ccccc43)cc2)cc1
AC40 [2]: > 15 µM (inactive)

CS(=O)(=O)c1ccc(OCCn2cnc3ccccc32)cc1
cell lysis activity [1]: -28.4% (inactive)

Cc1ccccc1OCCn1cnc2ccccc21
AC40 [2]: 15 µM

Cc1ccc2c(c1)[nH]c(=S)n2CCOc1ccccc1
cell lysis activity [1]: 10.9% (inactive)

Cc1cccc(OCCn2cnc3ccccc32)c1
AC40 [2]: 12.8 µM

COCc1nc2ccccc2n1CCOc1ccc(C(C)(C)C)cc1
AC40 [2]: > 15 µM (inactive)

Cc1cccc(OCCn2c(=S)[nH]c3ccccc32)c1
AC40 [2]: 1.38 µM

CC(C)c1ccccc1OCCn1c(=S)[nH]c2ccccc21
AC40 [2]: 1.25 µM

Cc1cc2ncn(CCOc3ccc4c(c3)CCC4)c2cc1C
AC40 [2]: 4.6 µM

Fc1ccc(OCCn2c(=S)[nH]c3ccccc32)cc1
cell lysis activity [1]: -65.4% (inactive)

NCC(=O)Nc1ccc(-n2nc(C(F)(F)F)cc2-c2ccc3c(ccc4ccccc43)c2)cc1
AC40 [2]: 5 µM

CC(C)(C)c1ccc(OCCn2cnc3ccccc32)c(Cl)c1
AC40 [2]: > 15 µM (inactive)

CCc1nc2ccccc2n1CCOc1ccccc1
AC40 [2]: > 15 µM (inactive)

COc1cccc(OCCn2cnc3ccccc32)c1
cell lysis activity [1]: -2.74% (inactive)

Cc1ccc(C(C)C)c(OCCn2c(N)nc3ccccc32)c1
AC40 [2]: > 15 µM (inactive)

CC(C)Oc1ccc(OCCn2cnc3ccccc32)cc1
AC40 [2]: > 15 µM (inactive)

Cc1ccc(OCCn2cnc3ccccc32)c(C(C)C)c1
AC40 [2]: 4.09 µM

S=c1[nH]c2cccc(Cl)c2n1CCOc1ccccc1
AC40 [2]: 2.83 µM

O=S(=O)(c1ccc(OCCn2cnc3ccccc32)cc1)N1CCOCC1
cell lysis activity [1]: -15% (inactive)

c1ccc(-c2ccc(OCCn3cnc4ccccc43)cc2)cc1
cell lysis activity [1]: 6.2% (inactive)

CC(C)Oc1cccc(OCCn2cnc3ccccc32)c1
AC40 [2]: > 15 µM (inactive)

Fc1cccc2c1[nH]c(=S)n2CCOc1ccccc1
AC40 [2]: 13.8 µM

CCCCc1nc2ccccc2n1CCOc1ccccc1
AC40 [2]: 6.27 µM

COc1ccccc1OCCn1c(SC)nc2ccccc21
AC40 [2]: > 15 µM (inactive)

CC(C)c1ccccc1NCCn1c(=S)[nH]c2ccccc21
AC40 [2]: 3.78 µM

COc1ccccc1OCCn1c(=S)[nH]c2ccccc21
cell lysis activity [1]: -4.68% (inactive)

CC(C)(C)c1ccc(OCCn2cnc3ccccc32)cc1
AC40 [2]: 1.46 µM

Cc1ccc(OCCn2cnc3ccccc32)c(C)c1
AC40 [2]: > 15 µM (inactive)

COc1cc(C)ccc1OCCn1cnc2ccccc21
cell lysis activity [1]: -57.7% (inactive)

CSc1nc2ccccc2n1CCOc1ccc(C)cc1
cell lysis activity [1]: 16.4% (inactive)

Cc1cc2ncn(CCOc3ccccc3)c2cc1C
AC40 [2]: 10.1 µM

CC(C)(C)c1ccc(OCCn2c(CO)nc3ccccc32)cc1
AC40 [2]: 14.2 µM

FC(F)(F)c1cccc(OCCn2cnc3ccccc32)c1
AC40 [2]: > 15 µM (inactive)

Cc1cc2ncn(CCOc3ccccc3C)c2cc1C
AC40 [2]: 2.42 µM

CSc1nc2ccccc2n1CCOc1ccccc1
AC40 [2]: > 15 µM (inactive)

COc1ccc(OCCn2cnc3ccccc32)cc1
AC40 [2]: > 15 µM (inactive)

Cc1ccc(C(C)C)c(OCCn2c(CO)nc3ccccc32)c1
AC40 [2]: > 15 µM (inactive)

Clc1ccc(OCCn2cnc3ccccc32)c(Cl)c1
cell lysis activity [1]: -34% (inactive)

OCc1nc2ccccc2n1CCOc1ccccc1
AC40 [2]: > 15 µM (inactive)

Clc1ccc(OCCn2cnc3ccccc32)cc1
AC40 [2]: > 15 µM (inactive)

CSc1nc2ccccc2n1CCOc1cc(C)ccc1C(C)C
cell lysis activity [1]: -20.1% (inactive)

Fc1ccc2c(c1)[nH]c(=S)n2CCOc1ccccc1
AC40 [2]: 2.83 µM and 6.57 µM

Cc1ccc(C(C)C)c(OCCn2c(=O)[nH]c3ccccc32)c1
cell lysis activity [1]: -24.5% (inactive)

Cc1cccc(OCCn2c(=S)[nH]c3cc(F)ccc32)c1
AC40 [2]: 2.42 µM and 3.03 µM

Cc1cccc(OCCn2c(=S)[nH]c3ccc(C(F)(F)F)cc32)c1
AC40 [2]: > 15 µM (inactive)

S=c1[nH]c2cc(Cl)ccc2n1CCOc1ccccc1
AC40 [2]: 2.57 µM
